Data published in patent US8207185B2, “CaMKKβ as a target for treating obesity” (Duke University, priority 2006, dated 2012).

What was measured:
[1] = tested on: feeding behavior of living mice; assay: Third-ventricle infusion of STO-609 in living mice: food intake, water intake and body weight over 7 days; format: in vivo; conditions: 20 uM STO-609, 0.5 ul/hr for 7 days
Method: (§1) To test the effect of STO-609 on feeding behavior, we stereotaxically implanted cannula into the third ventricle of living mice and attached the cannula to osmotic min-pumps that distribute fluids at a rate of 0.5 ul/hr for 7 days. Half of the pumps contained 20 uM STO-609 whereas the other half contained the NaOH vehicle. We monitored body weight together with food and water intake daily for 7 days. Then the mice were sacrificed, hypothalami were removed, RNA extracted and the mRNAs encoding NPY and AgRP were quantified by RT-PCR. […] In addition, STO-609 decreased the total amount of food consumed over the 7 day period by 60% (FIG. 2, left panel) but had no effect on water consumption. In addition, whereas the WT mice gained body weight during the 7 day period (about 4% relative to the starting weight) the STO-609 treated mice lost weight (about 7% relative to the starting weight) (FIG. 2, right panel).

NPY and AgRP mRNA = assay: Third-ventricle infusion of STO-609 in living mice: hypothalamic NPY and AgRP mRNA quantified by RT-PCR; format: in vivo; conditions: 20 uM STO-609 by osmotic mini-pump, 0.5 ul/hr for 7 days, into third ventricle; versus NaOH vehicle; FIG. 1
Method: as §1

O=C(O)c1ccc2c3c1cccc3c(=O)n1c3ccccc3nc21 [STO-609]
effect on water consumption [1]: no effect | body weight lost relative to the starting weight ([1]; 7 day period, FIG. 2, right panel): about 7% | decrease of total amount of food consumed over the 7 day period ([1]; FIG. 2, left panel): 60% | AgRP mRNA in hypothalamic RNA (NPY and AgRP mRNA): highly statistically significant decreases | NPY mRNA in hypothalamic RNA (NPY and AgRP mRNA): highly statistically significant decreases
